Experiments:
GST-Bcl-2 = GST-Bcl-2 (Homo sapiens, UniProt P10415); assay: TR-FRET binding assay, GST-Bcl-2 with F-Bak peptide probe; details: TR-FRET Binding Affinity, GST-Bcl-2, F-Bak peptide probe
In short: (§1)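 Compounds were serially diluted in DMSO from a 50 μM starting solution (2× the starting concentration; 10% DMSO). Plates were incubated for 3 h at room temperature, and TR-FRET was read with 340/35 nm excitation and emission at 520/525 nm (F-Bak) and 495/510 nm (Tb antibody). Ki values were calculated using Wang's competitive-binding equation.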

GST-Bcl-XL = GST-Bcl-XL (Homo sapiens, UniProt Q07817); assay: TR-FRET binding assay, GST-Bcl-XL with F-Bak peptide probe; details: TR-FRET Binding Affinity, GST-Bcl-XL, F-Bak peptide probe
Sequence of GST-Bcl-XL (Q07817 whole entry): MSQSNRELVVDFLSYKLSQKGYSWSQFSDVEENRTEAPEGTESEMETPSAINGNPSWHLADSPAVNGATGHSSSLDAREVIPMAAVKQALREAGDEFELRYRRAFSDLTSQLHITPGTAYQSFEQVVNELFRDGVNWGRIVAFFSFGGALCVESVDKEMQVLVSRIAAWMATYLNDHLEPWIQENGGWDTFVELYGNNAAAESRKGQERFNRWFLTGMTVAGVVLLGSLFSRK
In short: as §1

Canine platelets = assay: Platelet cell viability assay (platelet-rich plasma, Cell Titer Glo); type: cell-based; details: Canis lupus familiaris, 5 h, isolated canine platelets ex vivo, five hours at 37° C.
Protocol: After the incubation, platelets were equilibrated to room temperature for 20 minutes and then an equal volume of Cell Titer Glo reagent (Promega Corporation) was added. Samples were mixed for two minutes and then allowed to equilibrate for an additional 10 minutes at room temperature. The luminescence generated from the samples was quantitated using an LJL Analyst plate reader.
The effect of compounds on platelet survival can be directly evaluated ex vivo by examining the viability of isolated canine platelets in the presence of various concentrations of compound.

FL5.12/Bcl-2 cells = assay: FL5.12/Bcl-2 cell viability assay under IL-3 withdrawal (CellTitre Glo); type: cell-based, murine; details: Mus musculus, IL-3 withdrawn 48 hrs, then 24 hrs with compound
In short: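 Murine IL-3-dependent FL5.12 cells stably overexpressing Bcl-2 were deprived of IL-3 (WEHI-3B conditioned medium omitted) for 48 hrs, then exposed to various compound concentrations for a further 24 hrs at 37° C, 5% CO2. Viability was read by CellTitre Glo luminescence.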

Sequence of GST-Bcl-2 (P10415 whole entry): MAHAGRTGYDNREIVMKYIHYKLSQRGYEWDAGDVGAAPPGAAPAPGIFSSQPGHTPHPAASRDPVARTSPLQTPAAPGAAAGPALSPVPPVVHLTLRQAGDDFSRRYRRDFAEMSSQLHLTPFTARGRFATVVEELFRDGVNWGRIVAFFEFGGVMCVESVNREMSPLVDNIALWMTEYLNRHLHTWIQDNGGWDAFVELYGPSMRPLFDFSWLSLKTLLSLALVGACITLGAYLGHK

CN(C)CCCNc1ccc(S(=O)(=O)NC(=O)c2ccc(N3CCN(Cc4ccccc4-c4ccc(Cl)cc4)CC3)cc2Oc2ccc3ccccc3c2)cc1[N+](=O)[O-] [Example 166, 4-{4-[(4′-chloro-1,1′-biphenyl-2-yl)methyl]piperazin-1-yl}-N-[(4-{[3-(dimethylamino)propyl]amino}-3-nitrophenyl)sulfonyl]-2-(2-naphthyloxy)benzamide]
Ki (GST-Bcl-2): 0.459 nM
Ki (GST-Bcl-XL): 3.27 nM
EC50 (Canine platelets): > 50000 nM
EC50 (FL5.12/Bcl-2 cells): 153 nM

CC1(C)CCC(CN2CCN(c3ccc(C(=O)NS(=O)(=O)c4ccc(NCCCN5CCOCC5)c([N+](=O)[O-])c4)c(Oc4ccc5c(c4)CCCN5)c3)CC2)=C(c2ccc(Cl)cc2)C1 [Example 22, 4-(4-{[2-(4-chlorophenyl)-4,4-dimethylcyclohex-1-en-1-yl]methyl}piperazin-1-yl)-N-({4-[(3-morpholin-4-ylpropyl)amino]-3-nitrophenyl}sulfonyl)-2-(1,2,3,4-tetrahydroquinolin-6-yloxy)benzamide]
Ki (GST-Bcl-2): 6.22 nM
Ki (GST-Bcl-XL): 125 nM
EC50 (Canine platelets): > 50000 nM
EC50 (FL5.12/Bcl-2 cells): 825 nM

CN1CCC(Nc2ccc(S(=O)(=O)NC(=O)c3ccc(N4CCN(CC5=C(c6ccc(Cl)cc6)CC(C)(C)CC5)CC4)cc3Oc3ccc4c(c3)CCCN4)cc2[N+](=O)[O-])CC1 [Example 23, 4-(4-{[2-(4-chlorophenyl)-4,4-dimethylcyclohex-1-en-1-yl]methyl}piperazin-1-yl)-N-({4-[(1-methylpiperidin-4-yl)amino]-3-nitrophenyl}sulfonyl)-2-(1,2,3,4-tetrahydroquinolin-6-yloxy)benzamide]
Ki (GST-Bcl-2): 6.64 nM
Ki (GST-Bcl-XL): 168 nM
EC50 (Canine platelets): > 50000 nM
EC50 (FL5.12/Bcl-2 cells): 1440 nM

CN1CCC(Nc2ccc(S(=O)(=O)NC(=O)c3ccc(N4CCN(CC5=C(c6ccc(Cl)cc6)CC(C)(C)CC5)CC4)cc3Oc3cccc4[nH]ccc34)cc2[N+](=O)[O-])CC1 [Example 103, 4-(4-{[2-(4-chlorophenyl)-4,4-dimethylcyclohex-1-en-1-yl]methyl}piperazin-1-yl)-2-(1H-indol-4-yloxy)-N-({4-[(1-methylpiperidin-4-yl)amino]-3-nitrophenyl}sulfonyl)benzamide]
Ki (GST-Bcl-2): 0.056 nM
Ki (GST-Bcl-XL): 117 nM
EC50 (Canine platelets): 31400 nM
EC50 (FL5.12/Bcl-2 cells): 14 nM

CN1CCC(Nc2ccc(S(=O)(=O)NC(=O)c3ccc(N4CCN(CC5=C(c6ccc(Cl)cc6)CC(C)(C)C5)CC4)cc3Oc3cccc4[nH]ccc34)cc2[N+](=O)[O-])CC1 [Example 144, 4-(4-{[2-(4-chlorophenyl)-4,4-dimethylcyclopent-1-en-1-yl]methyl}piperazin-1-yl)-2-(1H-indol-4-yloxy)-N-({4-[(1-methylpiperidin-4-yl)amino]-3-nitrophenyl}sulfonyl)benzamide]
Ki (GST-Bcl-2): 53.9 nM
Ki (GST-Bcl-XL): > 660 nM
EC50 (Canine platelets): 40000 nM
EC50 (FL5.12/Bcl-2 cells): 46 nM

CN1CCC(Nc2ccc(S(=O)(=O)NC(=O)c3ccc(N4CCN(CC5=C(c6ccc(Cl)cc6)CC(C)(C)CC5)CC4)cc3Oc3ccc4[nH]ccc4c3)cc2[N+](=O)[O-])CC1 [Example 98, 4-(4-{[2-(4-chlorophenyl)-4,4-dimethylcyclohex-1-en-1-yl]methyl}piperazin-1-yl)-2-(1H-indol-5-yloxy)-N-({4-[(1-methylpiperidin-4-yl)amino]-3-nitrophenyl}sulfonyl)benzamide]
Ki (GST-Bcl-XL): > 660 nM
EC50 (Canine platelets): 17900 nM
EC50 (FL5.12/Bcl-2 cells): 4 nM

CN1CCC(Nc2ccc(S(=O)(=O)NC(=O)c3ccc(N4CCN(CC5=C(c6ccc(Cl)cc6)CC(C)(C)CC5)CC4)cc3Oc3ccc4[nH]ccc4c3)cc2S(=O)(=O)C(F)(F)F)CC1 [Example 76, 4-(4-{[2-(4-chlorophenyl)-4,4-dimethylcyclohex-1-en-1-yl]methyl}piperazin-1-yl)-2-(1H-indol-5-yloxy)-N-({4-[(1-methylpiperidin-4-yl)amino]-3-[(trifluoromethyl)sulfonyl]phenyl}sulfonyl)benzamide]
Ki (GST-Bcl-XL): 3.29 nM
EC50 (Canine platelets): 8660 nM
EC50 (FL5.12/Bcl-2 cells): 39 nM
